Experimental data: paper PMC6804466 (Acta Pharmaceutica Sinica. B, 2019)
Marks after values point to notes of the source that are not given here.

Legend:
[1] = test system: Mock-HEK293 cells; test: Cytotoxicity of Imp, CCK-8 assay, Mock-HEK293 cells; assay type: cell-based, human; conditions: 24 h; for Effect of Cil or Prb on the survival rate of Mock cells treated with Imp: Imp 0–1 mmol/L plus the named inhibitor 200 μmol/L
[2] = calculated from maximum plasma concentration and plasma protein binding
[3] = cited from earlier work
[4] = Imp-induced nephrotoxicity in rabbits; assay type: in vivo, rabbit; conditions: for Imp-induced acute structural damage of rabbit kidney after coadministration: Imp 200 mg/kg i.v. plus Cil 200 mg/kg or Prb 50 mg/kg
[5] = human; cited from earlier work
[6] = test system: hOAT3-HEK293 cells; test: Cytotoxicity of Imp, CCK-8 assay, hOAT3-HEK293 cells; assay type: cell-based, human; conditions: 24 h; for Survival rate of hOAT3-HEK293 cells with Imp in the presence of Cil or Prb: Imp 1 mmol/L plus the named inhibitor 200 μmol/L
[7] = target: T1, hOAT1 (Homo sapiens, UniProt Q4U2R8); test: Imp uptake by hOAT1-HEK293 cells; assay type: cell-based; conditions: 100 μmol/L, 10 min, with or without Prb 200 μmol/L
T1 sequence (Q4U2R8 1-563): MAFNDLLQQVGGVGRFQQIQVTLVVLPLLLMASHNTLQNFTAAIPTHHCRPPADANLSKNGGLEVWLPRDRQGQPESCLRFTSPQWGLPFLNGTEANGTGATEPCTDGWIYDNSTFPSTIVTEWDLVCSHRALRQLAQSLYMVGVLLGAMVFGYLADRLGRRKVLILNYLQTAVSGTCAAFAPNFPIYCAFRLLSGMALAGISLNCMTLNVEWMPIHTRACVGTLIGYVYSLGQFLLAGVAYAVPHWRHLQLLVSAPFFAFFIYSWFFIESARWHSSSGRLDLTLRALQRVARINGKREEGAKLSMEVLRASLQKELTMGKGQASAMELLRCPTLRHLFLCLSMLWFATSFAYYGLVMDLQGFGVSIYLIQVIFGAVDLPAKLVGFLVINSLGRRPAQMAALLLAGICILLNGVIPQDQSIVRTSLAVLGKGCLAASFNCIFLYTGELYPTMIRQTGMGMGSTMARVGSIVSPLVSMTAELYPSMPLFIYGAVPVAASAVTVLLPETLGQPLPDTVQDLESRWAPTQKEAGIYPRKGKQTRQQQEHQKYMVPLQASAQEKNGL

[8] = Pharmacokinetics of Imp in rabbits; assay type: in vivo; conditions: male, New Zealand white, rabbit, iv, 200 mg/kg
[9] = test system: hOAT1-HEK293 cells; test: Cytotoxicity of Imp, CCK-8 assay, hOAT1-HEK293 cells; assay type: cell-based, human; conditions: Imp alone 1 mmol/L, 24 h
[10] = test system: raOATs; test: Imp uptake by rabbit primary proximal tubule cells; assay type: cell-based; conditions: Imp 100 μmol/L, 10 min, vs si-Control cells
[11] = target: T2, hOAT3 (Homo sapiens, UniProt Q8TCC7); conditions: 100 μmol/L, 10 min, with or without Prb 200 μmol/L
T2 sequence (Q8TCC7 1-542): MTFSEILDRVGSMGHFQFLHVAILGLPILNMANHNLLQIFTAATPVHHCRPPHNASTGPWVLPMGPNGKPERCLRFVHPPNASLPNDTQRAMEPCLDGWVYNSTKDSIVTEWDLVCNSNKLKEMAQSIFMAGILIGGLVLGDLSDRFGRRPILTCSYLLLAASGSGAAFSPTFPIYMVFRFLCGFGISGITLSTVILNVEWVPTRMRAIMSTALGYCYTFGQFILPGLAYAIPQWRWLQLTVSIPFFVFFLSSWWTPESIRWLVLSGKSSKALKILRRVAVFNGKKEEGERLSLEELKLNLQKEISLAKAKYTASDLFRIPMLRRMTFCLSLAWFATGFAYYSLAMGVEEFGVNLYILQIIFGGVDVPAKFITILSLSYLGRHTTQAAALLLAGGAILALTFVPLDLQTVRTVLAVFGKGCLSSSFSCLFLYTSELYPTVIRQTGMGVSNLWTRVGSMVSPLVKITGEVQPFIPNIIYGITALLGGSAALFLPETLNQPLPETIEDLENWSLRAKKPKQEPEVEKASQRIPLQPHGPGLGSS

[12] = Imp 200 mg/kg i.v. with or without Cil 200 mg/kg or Prb 50 mg/kg, 48 h

CC1(C)C[C@@H]1C(=O)N/C(=C\CCCCSC[C@H](N)C(=O)O)C(=O)O [Cil, cilastatin]
Effect of Cil or Prb on the survival rate of Mock cells treated with Imp [1]: little effect | Peak level of free Cil in human [2]: about 140 μmol/L | Maximum clinical plasma concentration of Cil ([3]; human): 88 µg/mL | Imp-induced acute structural damage of rabbit kidney after coadministration ([4]; 48 h): significantly reduced | Plasma protein binding of Cil [5]: approximately 40% | Survival rate of hOAT3-HEK293 cells with Imp in the presence of Cil or Prb [6]: 66.3%

CCCN(CCC)S(=O)(=O)c1ccc(C(=O)O)cc1 [Prb, probenecid]
Effect of Cil or Prb on the survival rate of Mock cells treated with Imp [1]: little effect | Imp-induced acute structural damage of rabbit kidney after coadministration ([4]; 48 h): significantly reduced | Survival rate of hOAT3-HEK293 cells with Imp in the presence of Cil or Prb [6]: 76.2%

C[C@@H](O)[C@H]1C(=O)N2C(C(=O)O)=C(SCCN=CN)C[C@H]12 [Imp, Imipenem]
Survival rate of Mock-HEK293 cells ([1]; Imp alone 1 mmol/L): 85.8% | Substrate of hOAT1 (uptake vs Mock cells, inhibited by Prb) [7]: substrates of hOAT1 and hOAT3 | AUC(0-t) ([8]; plasma): 289 ± 48.7 µg·h/mL | clearance ([8]; plasma): 11.9 mL/min/kg | half-life ([8]; plasma): 58 ± 4.2 min | CL renal ([8]; urine): 2.78 mL/min/kg | Renal excretion of Imp [3]: ~70% | Renal histology (HE and PAS staining) ([4]; Imp 200 mg/kg i.v. alone, 48 h): severe renal damage | Body weight 0 h ([4]; Imp 200 mg/kg i.v. with or without Cil 200 mg/kg or Prb 50 mg/kg, 0 h (baseline)): 2.87 ± 0.24 kg | Body weight 48 h [4, 12]: 2.69 ± 0.24 kg | Kidney weight [4, 12]: 13.2 ± 1.5 g | Kidney/body weight ratio [4, 12]: 4.81 ± 0.29 ^a g/kg | Survival rate of hOAT1-HEK293 cells [9]: 47.5% | Increase in intracellular level of Imp in rPTCs transfected with si-DHP-I [10]: 30% | Substrate of hOAT3 (uptake vs Mock cells, inhibited by Prb) [11]: substrates of hOAT1 and hOAT3 | Survival rate of hOAT3-HEK293 cells ([6]; Imp alone 1 mmol/L): 27.2%
